SMILES strings stand for the structures. Structures can show the parent of a compound that is named as a salt. Where two headings read alike, the source gives them in different places.

This test deals with PRKACA-PRKAR2A interaction (SmBiT-PRKACA / LgBiT-PRKAR2A), protein kinase A. Further details: NanoLuc complementation counter-screen in cell extract, PRKACA with PRKAR2A, loss of luminescence, detects NanoLuc interference. The settings on record: 0.5 h, 20 µM, inhibitor.
Setting [1] is: counter-screen for NanoLuc interference.
Setting [2] is: counter-screen for NanoLuc interference, Inh (PKA).

As to `CC(C)CC(N)=O` [UM0142364:01, Isovaleramide], the “Inh (PKA)” value under setting [1] is -0.438%. Still for that read-out and setting: under `CN(C)c1ccc(O)c2c1C[C@H]1C[C@H]3[C@H](N(C)C)C(O)=C(C(N)=O)C(=O)[C@@]3(O)C(O)=C1C2=O` [UM0142369:01, Minocycline HCl] stands 5.155%; under `NC[C@@H]1O[C@H](O[C@H]2[C@@H](O)[C@H](O[C@@H]3[C@@H](O)[C@H](N)C[C@H](N)[C@H]3O[C@H]3O[C@H](CN)[C@@H](O)[C@H](O)[C@H]3N)O[C@@H]2CO)[C@H](N)[C@@H](O)[C@@H]1O` [UM0142371:01, Neomycin sulfate], 1.127%; under `CCN[C@@H]1C[C@H](N)[C@@H](O[C@H]2OC(CN)=CC[C@H]2N)[C@H](O)[C@H]1O[C@H]1OC[C@](C)(O)[C@H](NC)[C@H]1O` [UM0142372:01, Netilmicin Sulfate], -0.6216%. On the same count and under the same terms, with `CC[C@@H]1/C=C(\C)C[C@H](C)C[C@H](OC)[C@H]2O[C@@](O)(C(=O)C(=O)N3CCCC[C@H]3C(=O)O[C@H](/C(C)=C/[C@@H]3CC[C@H](Cl)[C@H](OC)C3)[C@H](C)[C@@H](O)CC1=O)[C@H](C)C[C@@H]2OC` [UM0142376:01, Pimecrolimus] the figure was 0.5953%; with `Nc1ccc2cc3ccc(N)cc3nc2c1` [UM0142377:01, Proflavine Hemisulfate], 0.7107%. Still for that read-out and setting: with `NC[C@H]1O[C@H](O[C@H]2[C@H](O[C@@H]3O[C@H](CO)[C@@H](O)[C@H]3O)[C@@H](O)[C@H](N)C[C@@H]2N)[C@H](N)[C@@H](O)[C@@H]1O` [UM0142378:01, Ribostamycin Sulfate] the figure was 35.19%. For the compound `Cc1ccc(C(=O)C(C)CN2CCCCC2)cc1` (centres unmarked) [UM0142383:01, Tolperisone HCl], under setting [1], the “Inh (PKA)” value is given as -1.099%. On to `NC[C@H]1CC[C@H](C(=O)O)CC1` [UM0142384:01, Tranexamic Acid], for which the “Inh (PKA)” value under setting [1] came out at 2.588%. Same read-out and setting: with `CCC[S+]([O-])c1ccc2[nH]c(NC(=O)OC)nc2c1` (centres unmarked) [UM0142387:01, Albendazole Oxide] the figure was 2.774%; with `C=CCNC(N)=S` [UM0142388:01, Allylthiourea], 3.519%; with `Oc1ccc(OC2CCCCO2)cc1` (centres unmarked) [UM0142392:01, Deoxyarbutin], 1.229%.

`O=C(O)Cc1ccccc1Nc1c(Cl)cccc1Cl` [UM0142393:01, Diclofenac Diethylamine]: the “Inh (PKA)” value under setting [2] was determined as 11.28%.

Regarding `C[C@]12CC[C@@H]3c4ccc(OC(=O)c5ccccc5)cc4CC[C@H]3[C@@H]1CC[C@@H]2O` [UM0142395:01, Estradiol Benzoate], under setting [1], the “Inh (PKA)” value came to 19.47%.

Take `O=C(Oc1ccc([N+](=O)[O-])cc1)N1CCC(C(O)(c2ccc3c(c2)OCO3)c2ccc3c(c2)OCO3)CC1` [UM0142396:01, JZL184]: the “Inh (PKA)” value amounted to 16.72%. On to `CN(C)C(=N)NC(=N)N` [UM0142397:01, Metformin HCl], for which the “Inh (PKA)” value under setting [1] is on record as 1.975%. On the same count and under the same terms, under `O=C(NC(Cc1cc(=O)[nH]c2ccccc12)C(=O)O)c1ccc(Cl)cc1` (centres unmarked) [UM0142401:01, Rebamipide] stands 2.079%; under `C=C[C@]1(C)C[C@@H](OC(=O)CS[C@@H]2C[C@H]3CC[C@@H](C2)N3C)[C@]2(C)[C@H](C)CC[C@]3(CCC(=O)[C@H]32)[C@@H](C)[C@@H]1O` [UM0142402:01, Retapamulin], 4.258%.

Consider `CCCN1CCCC[C@H]1C(=O)Nc1c(C)cccc1C` [UM0142404:01, Ropivacaine HCl], for which, under setting [1], the “Inh (PKA)” value amounted to 0.01917%. On the same count and under the same terms, with `Cc1ccc(S(=O)(=O)Cc2nc(-c3ccc(C(=O)NCc4cccnc4)cc3)oc2C)cc1` [UM0142406:01, STF-118804] the figure was 1.65%; with `CN[C@@H]1[C@H](O[C@H]2[C@H](O[C@H]3[C@H](O)[C@@H](O)[C@H](N=C(N)N)[C@@H](O)[C@@H]3N=C(N)N)O[C@@H](C)[C@]2(O)C=O)O[C@@H](CO)[C@H](O)[C@H]1O` [UM0142407:01, Streptomycin sulfate], 1.585%. Same read-out and setting: with `CC1(C)[C@H](C(=O)O)N2C(=O)C[C@H]2S1(=O)=O` [UM0142408:01, Sulbactam sodium] the figure was 1.508%. With `CCN=C1N[C@@H]2[C@@H](O)[C@H](O)[C@@H](CO)O[C@@H]2S1` [UM0142409:01, Thiamet G], the “Inh (PKA)” value under setting [1] was -0.5508%. Same read-out and setting: with `CN(C)C(=O)COC(=O)Cc1ccc(OC(=O)c2ccc(NC(=N)N)cc2)cc1` [UM0142412:01, Camostat Mesilate] the figure was 0.7864%; with `C=C[C@H]1CN2CC[C@H]1C[C@H]2[C@H](O)c1ccnc2ccc(OC)cc12` [UM0142415:01, Quinine HCl Dihydrate], 1.874%.

`C=C1CC[C@H](O)C/C1=C/C=C1\CCC[C@]2(C)[C@@H]([C@H](C)CCCC(C)(C)O)CC[C@@H]12` [UM0142419:01, Calcifediol]: the “Inh (PKA)” value under setting [1] stood at 12.98%.

With `CCC(CC)[C@H](NC(C)=O)[C@@H]1[C@H](O)[C@@H](C(=O)O)C[C@H]1NC(=N)N` [UM0142420:01, Peramivir Trihydrate], the “Inh (PKA)” value under setting [2] came out at 0.7131%.

`Cc1cccc(Nc2nc(-c3ccncc3)cs2)c1` [UM0142421:01, STF-62247]: under setting [1], the “Inh (PKA)” value is on record as 25.96%. Still for that read-out and setting: under `C=C1/C(=C\C=C2/CCC[C@]3(C)[C@@H]([C@H](C)CCCC(C)C)CC[C@@H]23)C[C@@H](O)C[C@@H]1O` [UM0142422:01, Alfacalcidol] stands 10.76%; under `Cc1cc(OCc2nnc(SC3CCCC3)n2-c2cccnc2)ccc1-c1ccc(S(C)(=O)=O)cc1` [UM0142426:01, NMS-873], 10.54%. Same read-out and setting: with `Nc1ncnc2c1c(-c1cnc3[nH]ccc3c1)nn2C1CCCC1` [UM0142428:01, PP121] the figure was 28.88%; with `COCCOc1ccc2c(c1)ncn2-c1ccc2cccc(N3CCC(N)CC3)c2n1` [UM0142429:01, CP-673451], 21.57%. Still for that read-out and setting: under `CNc1nc(-c2ccc3c(N)n[nH]c3c2)cc(N2C[C@@H](C(=O)NC3CCCCC3)CC[C@H]2C)n1` [UM0142430:01, GSK2334470] stands 2.681%. Take `Cc1cccc(CC(=O)N2CCc3c2ccc(-c2cn(C)c4ncnc(N)c24)c3F)n1` [UM0142431:01, GSK2656157]: the “Inh (PKA)” value under setting [1] is -0.3115%. The same measure, in the same setting: with `O=C1NC(=O)/C(=C/c2ccc3nccc(-c4ccncc4)c3c2)S1` [UM0142432:01, GSK1059615] the figure was 27.08%; with `Cc1c(CN2CCN(C(=O)[C@H](C)O)CC2)sc2c(N3CCOCC3)nc(-c3cnc(N)nc3)nc12` [UM0142435:01, GDC-0980 (RG7422)], 0.4199%; with `Cc1c(Cn2c(C)nc3c(C(=O)O)cc(N4CCOCC4)cc32)cccc1C(F)(F)F` [UM0142436:01, GSK2636771], -0.2162%. As to `Cn1cc(C2=C(c3cn(CCCSC(=N)N)c4ccccc34)C(=O)NC2=O)c2ccccc21` [UM0142439:01, Ro 31-8220 Mesylate], under setting [1], the “Inh (PKA)” value came out at 76.02%. For `COc1ccc2[nH]c([S@@+]([O-])Cc3ncc(C)c(OC)c3C)nc2c1` [UM0142444:01, Esomeprazole Magnesium], the “Inh (PKA)” value under setting [2] is 3.498%. On to `CCOC(=O)[C@H](CCc1ccccc1)N[C@H]1CS[C@H](c2cccs2)CN(CC(=O)O)C1=O` [UM0142447:01, Temocapril HCl], for which the “Inh (PKA)” value under setting [1] is 1.04%. Still for that read-out and setting: under `COCCCOc1cc(C[C@@H](C[C@H](N)[C@@H](O)C[C@H](C(=O)NCC(C)(C)C(N)=O)C(C)C)C(C)C)ccc1OC` [UM0142448:01, Aliskiren Hemifumarate] stands 6.646%; under `CCn1c2ccccc2c2cc(Nc3ccnc(NCCCN4CCOCC4)n3)ccc21` [UM0142449:01, EHop-016], 37.03%; under `Cc1cn([C@H]2C[C@H](N=[N+]=[N-])[C@@H](CO)O2)c(=O)[nH]c1=O` [UM0142451:01, Zidovudine], 1.207%.

As for `CC(C)(C)C(=O)OCOP(=O)(COCCn1cnc2c(N)ncnc21)OCOC(=O)C(C)(C)C` [UM0142452:01, Adefovir Dipivoxil], under setting [1], the “Inh (PKA)” value is -0.7793%. The same measure, in the same setting: with `Cc1cc(C#N)cc(C)c1Oc1nc(Nc2ccc(C#N)cc2)nc(N)c1Br` [UM0142453:01, Etravirine (TMC125)] the figure was 89.04%; with `Cc1cn([C@H]2C=C[C@@H](CO)O2)c(=O)[nH]c1=O` [UM0142454:01, Stavudine (d4T)], 0.5167%.

`CC(C)CCN1c2nc(Nc3cc(F)c(O)c(F)c3)ncc2N(C)C(=O)C1C` (centres unmarked) [UM0142455:01, BI-D1870]: the “Inh (PKA)” value under setting [1] is reported as 64.82%. Same read-out and setting: with `CCc1cncnc1N1CCN(Cc2nc3ccc(C(F)(F)F)cc3[nH]2)CC1` [UM0142456:01, PF-4708671] the figure was 34.33%. Consider `CNS(=O)(=O)CCc1ccc2[nH]cc(C3CCN(C)CC3)c2c1` [UM0142462:01, Naratriptan], for which the “Inh (PKA)” value under setting [1] is recorded as -0.5355%. On the same count and under the same terms, under `Nc1c(Br)cc(Br)cc1CN[C@H]1CC[C@H](O)CC1` [UM0142466:01, Ambroxol HCl] stands 4.132%.

For `O=C1NC(=O)C(c2ccccc2)(c2ccccc2)N1` [UM0142467:01, Phenytoin], the “Inh (PKA)” value under setting [1] turned out to be 11.36%. Still for that read-out and setting: with `CCOC(=O)C1=C[C@]2(CC)CCCN3CCc4c(n1c1ccccc41)[C@@H]32` [UM0142468:01, Vinpocetine] the figure was 12.65%; with `COc1cc(NC(=O)c2ccc(-c3ccc(Cl)cc3)o2)cc(OC)c1` [UM0142469:01, A-803467], 40.39%; with `CCCCCCCN(CC)CCCC(O)c1ccc(NS(C)(=O)=O)cc1` (centres unmarked) [UM0142470:01, Ibutilide Fumarate], 0.4733%. On to `O=C(Cc1ccc(-c2ccc(OCCN3CCOCC3)cc2)cn1)NCc1ccccc1` [UM0142472:01, KX2-391], for which, under setting [2], the “Inh (PKA)” value is recorded as 3.767%. Same read-out and setting: with `COc1cc(Nc2ncc(F)c(Nc3ccc4c(n3)N(COP(=O)(O)O)C(=O)C(C)(C)O4)n2)cc(OC)c1OC` [UM0142473:01, Fostamatinib (R788)] the figure was 53.12%.

The values above are taken from publication PMC9995496, “A screen for MeCP2-TBL1 interaction inhibitors using a luminescence-based assay” (Scientific Reports, 2023).
